Experimental data from publication PMC7504360 (International Journal of Molecular Sciences, 2020).
Square brackets hold non-standard residues; d marks the D form. Peptide text beside a SMILES is read from it.

How the values were obtained:
MAPK and NF-κB = experiment: Immunoblot of MAPK (JNK, ERK) phosphorylation and NF-κB nuclear translocation; format: cell-based, mouse; conditions: 20 μM peptide, LPS 50 ng/mL, RAW264.7 cells
Experimental: The protein content of all experimental groups of RAW264.7 cells in triplicate were extracted using radio immunoprecipitation buffer (RIPA) containing protease phosphatase inhibitor. The supernatant was collected by centrifugation (12,000× g) at 4 °C for 20 min and stored at −80 °C until further use. Similarly, cytoplasmic and nuclear fractionation was extracted using an NE-PER Nuclear and Cytoplasmic Extraction Reagents kit (ThermoFisher Scientific, MA, USA), according to the manufacturer’s protocol. Protein contents were quantified using a bicinchoninic acid (BCA) protein assay kit (Thermo Fisher Scientific Inc., MA, USA) and 30 μg (v/v) was electrophoresed by SDS-PAGE using a 10% (w/v) polyacrylamide resolving gel, electro-transferred to a PVDF membrane, and then blocked using 5% (w/v) non-fat milk. The membranes were incubated with primary antibodies (1:1000 dilution) at 4 °C overnight, followed by incubation with their respective secondary antibody for 1 h at room temperature. The antigen-antibody complexes were examined using the WestGlow^TM Chemiluminescent Substrate (Biomax Co., Ltd, Seoul, South Korea) under iBright™ CL1000 Imaging System (Thermo Fisher Scientific Inc., MA, USA). The densitometric analysis of protein signals were quantified using the Image J software (Version 1.52, National Institutes of Health, MD, USA).

[1] = system: LPS-stimulated RAW264.7 cells; experiment: IL-6 release, ELISA; format: cell-based, mouse; conditions: 25 μM, 1 h pretreatment, LPS 20 ng/mL for 16 h
Experimental: (§1) The presence of nitrite in culture media strongly validates the indication of NO production which was assessed by Griess assay. Briefly, RAW264.7 cell (1 × 10^5) were seeded in s 96-well plate in triplicate. Peptides (1, 5, 25, and 50 μM) were pretreated 1 h and then stimulated with 20 ng/mL of LPS purified from E. coli O111:B4 (Sigma-Aldrich, St. Louis, MO, USA) for 16 h. After incubation, equal volumes of culture media and Griess reagent were added and color change was read at 540 nm. The concentration of nitrite content was assessed using a standard curve of sodium nitrite. In addition, release of inflammatory cytokines including TNF-α and IL-6 in the culture media was quantified using an enzyme-linked immunosorbent assays kit (ELISA; R&D Systems, Minneapolis, MN, USA) and the assay was performed according to the kit protocol. The assay was conducted in triplicate, and the concentrations of TNF-α and IL-6 were evaluated by measuring the absorbance at 450 nm using a microplate reader.

[2] = system: LPS-stimulated RAW264.7 cells; experiment: Nitrite (NO) production, Griess assay; format: cell-based, mouse; conditions: 25 μM, 1 h pretreatment, LPS 20 ng/mL for 16 h
Experimental: as §1

[3] = system: LPS-stimulated RAW264.7 cells; experiment: TNF-α release, ELISA; format: cell-based, mouse; conditions: 25 μM, 1 h pretreatment, LPS 20 ng/mL for 16 h
Experimental: as §1

chymotrypsin = experiment: Protease stability assay (antimicrobial activity after protease digestion); format: in vitro ADME; conditions: peptide–enzyme 10,000:1, PBS, 6 h at 37 °C preincubation, then E. coli and A. baumannii, 16 h at 37 °C, 600 nm, repeated three times
Experimental: (§2) For stability analysis, all Pro-peptides at their MICs were incubated with trypsin and chymotrypsin at the ratio of 10,000:1 (peptide–enzyme) in PBS for 6 h at 37 °C. After incubation, 100 μL of peptide-protease mixture was added to the 100 μL bacterial suspension (E. coli and A. baumannii, 2 × 10^5 CFU/mL) and further incubated for 16 h at 37 °C. Melittin was used as standard peptide, and bacterial suspension without peptide and protease served as control. The experiment was repeated three times, and the extent of bacterial growth was measured at 600 nm using a microplate reader.

trypsin = experiment: as above; format: in vitro ADME; conditions: peptide–enzyme 10,000:1, PBS, 6 h at 37 °C preincubation, then E. coli and A. baumannii, 16 h at 37 °C, 600 nm, repeated three times
Experimental: as §2

E. coli K1-infected mice = experiment: E. coli K1 septic shock mouse model; format: in vivo
Experimental: For sepsis model, we used E. coli K1 as an infection strain [47], and mice were randomly sorted in to 6 groups (5 mice/group). Control mice received I.P. injection of phosphate buffered saline (PBS, pH = 7.4) whereas Pro10-1 and Pro10-1D were injected with 1 mg/Kg and served as a peptide control. Mice infected with E. coli K1 (6 × 10^6 CFU/mouse, I.P.) served as a sepsis control. For treatment measures, mice were pretreated with 1 mg/kg of the respective peptides for 1 h and then infected with E. coli K1 like the septic mice. After 16 h, mice were euthanized by cervical dislocation under overdose of ether anesthesia. The blood samples, lung, liver, and kidney tissues were excised and processed for biochemical and histological analysis. Briefly, organ lysates of lung, liver, and kidney harvested from ice-cold PBS were evaluated for number of bacterial colonies. Endotoxin levels in the serum contents were quantified according to the kit protocol using Pierce LAL Chromogenic Endotoxin Quantitation Kit (Thermo Fisher Scientific, MA, USA). The levels of AST, ALT, and BUN in serum and the inflammatory cytokine levels in the serum or lung lysates were quantified as described previously.
Lung tissues of the control and an experimental group of mice fixed by paraformaldehyde (4% v/v) were evaluated for histological changes. Briefly, […] lung tissue sections were deparaffinized in xylene, rehydrated with graded ethanol, and then stained with H&E stain. The stained section was examined for neutrophil infiltration and other morbid changes with a light microscope (Eclipse Ni; Nikon, Tokyo, Japan).

[4] = 1 mg/kg I.P. 1 h before E. coli K1 6 × 10^6 CFU/mouse I.P., 16 h, 5 mice/group
[5] = 1 mg/kg I.P. pretreatment, septic mice, ELISA
[6] = 1 mg/kg I.P. pretreatment, E. coli K1-infected mice = 100%

Structure (SMILES): CC[C@@H](C)[C@@H](NC(=O)[C@@H](C)NC(=O)[C@@H](CC(C)C)NC(=O)[C@@H](Cc1c[nH]c2ccccc12)NC(=O)[C@@H](CC(C)C)NC(=O)[C@@H](CCCNC(=N)N)NC(=O)[C@H](N)CCCNC(=N)N)C(=O)N[C@H](Cc1c[nH]c2ccccc12)C(=O)N[C@H](CCCNC(=N)N)C(=O)N[C@H](CCCNC(=N)N)C(N)=O [Pro10-1D] (H-[dR][dR][dL][dW][dL][dA][dI][dW][dR][dR]-NH2; N-terminus assumed)
- MAPK and NF-κB proteins (MAPK and NF-κB): downregulated
- inhibition of LPS-induced IL-6 level [1]: effective inhibition
- inhibition of LPS-induced NO (nitrite) level [2]: effective inhibition
- inhibition of LPS-induced TNF-α level [3]: effective inhibition
- protease resistance (retention of bactericidal activity) (chymotrypsin): substantial protease resistance
- protease resistance (retention of bactericidal activity) (chymotrypsin; listed as enantiomeric Pro10-1): retained its bactericidal activity
- protease resistance (retention of bactericidal activity) (trypsin): substantial protease resistance
- protease resistance (retention of bactericidal activity) (trypsin; listed as enantiomeric Pro10-1): retained its bactericidal activity
- reduction of the number of bacteria in kidney (E. coli K1-infected mice; [4]): ~71%
- reduction of the number of bacteria in liver (E. coli K1-infected mice; [4]): ~87%
- reduction of the number of bacteria in lung (E. coli K1-infected mice; [4]): approximately 73%
- lung pathological changes (PMN infiltration), H&E histology (E. coli K1-infected mice; 1 mg/kg I.P. pretreatment, E. coli K1-infected mice): effectively alleviated the pathological changes
- suppression of IL-6 level in lung tissue (E. coli K1-infected mice; [5]): 62%
- suppression of IL-6 level in serum (E. coli K1-infected mice; [5]): 56%
- suppression of TNF-α level in lung tissue (E. coli K1-infected mice; [5]): 51%
- suppression of TNF-α level in serum (E. coli K1-infected mice; [5]): 45%
- reduction of serum endotoxin levels (LAL test) (E. coli K1-infected mice; [6]): over 33%
- serum ALT level reduced to (E. coli K1-infected mice; [6]): 48%
- serum AST level reduced to (E. coli K1-infected mice; [6]): 26%
- serum BUN level reduced to (E. coli K1-infected mice; [6]): 37%
